Source: US6911443B2 (Bayer Aktiengesellschaft, priority 2000, dated 2005)

target: T1, human Syk (GST-Syk) (Homo sapiens, UniProt P43405); assay: Syk tyrosine kinase inhibitory assay; type: biochemical; details: Activity grade (IC50 class), in vitro; compounds as yielded by solid phase synthesis, purity about 40 to 90%
T1 construct: A cDNA fragment encoding human Syk openreading frame was cloned; made in house; host or cells: Sf21 insect cells (baculovirus, transfer vector pAcG2T)
From the text: [Syk Tyrosine Kinase Inhibitory Assay]
(1) Preparation of Syk Protein
A cDNA fragment encoding human Syk openreading frame was cloned from total RNA of human Burkitt's lymphoma B cell lines, Raji (American Type Culture Collection), with the use of RT-PCR method. The cDNA fragment was inserted into pAcG2T (Pharmingen, San Diego, Calif.) to construct a baculovirus transfer vector. Then the vector, together with the linearized baculovirus (BaculoGold™, Pharmingen), was used to transfect Sf21 cells (Invitrogen, San Diego, Calif.).
Generated recombinant baculovirus was cloned and amplified in Sf21 cells. Sf21 cells were infected with this amplified high titer virus to produce a chimeric protein of Syk kinase fused by glutathione-S-transferase (GST).
The resulting GST-Syk was purified with the use of glutathione column (Amersham Pharmacia Biotech AB, Uppsala, Sweden) according to the manufacturer's instruction.
(2) Synthesize of a Peptide
Next, a peptide fragment of 30 residues including two tyrosine residues, […], was synthesized by a peptide synthesizer. The N-terminal of the fragment was then biotinylated to obtain biotinylated activation loop peptide (AL).
(3) The Measurement of Syk Tyrosine Kinase Activity
All reagents were diluted with the Syk kinase assay buffer (50 mM Tris-HCl (pH 8.0), 10 mM MgCl2, 0.1 mM Na3VO4, 0.1% BSA, 1 mM DTT). First, a mixture (35 μl) including […] of GST-Syk and 0.5 μg of AL was put in each well in 96-well plates. Then 5 μl of a test compound in the presence of 2.5% dimethylsulfoxide (DMSO) was added to each well. To this mixture was added […] (10 μl) to initiate the kinase reaction. The final reaction mixture (50 μl) consists of 0.65 nM GST-Syk, 3 μM AL, 30 μM ATP, a test compound, 0.25% DMSO, and a Syk kinase assay buffer.
The mixture was incubated for 1 hr at room temperature, and the reaction was terminated by the addition of 120 μl of termination buffer (50 mM Tris-HCl (pH 8.0), 10 mMEDTA, 500 mM NaCl, 0.1% BSA). The mixture was transferred to streptavidin-coated plates and incubated for 30 min at room temperature to combine biotin-AL to the plates. After washing the plates with Tris-buffered saline (TBS) (50 mM Tris-HCl (pH 8.0), 138 mM NaCl, 2.7 mM KCl) containing 0.05% Tween-20 for 3 times, 100 μl of antibody solution consisting of 50 mM Tris-HCl (pH 8.0), 138 mM NaCl, 2.7 mM KCl, 1% BSA, 60 ng/ml anti-phosphotyrosine monoclonal antibody, 4G10 (Upstate Biotechnology), which is labeled with europium by Amersham Pharmacia's kit in advance, was added and incubated at room temperature for 60 min. After washing, 100 μl of enhancement solution (Amersham pharmacia Biotech) was added and then time-resolved fluorescence was measured by multi-label counter ARVO (Wallac Oy, Finland) at 340 nm for excitation and 615 nm for emission with 400 msec of delay and 400 msec of window.

Compound | IC50 [nM]
CCSc1nc(-c2ccc(OC(=O)N(C)C)c(OC)c2)cc2nccn12 [Example 3-12] | 2000 to 10000
CCSc1nc(-c2ccc(OC)c(OC(=O)N(C)C)c2)cc2nccn12 [Example 4-10] | 500 to 2000

same assay, conditions: Table 17; IC50 classes; read-out: Activity grade

IC50 [nM] | Compound
< 500 | COc1ccc(-c2cc3nccn3c(Nc3ccccc3)n2)cc1NC(=O)CCC(=O)O [Example 2]
< 500 | COc1ccc(-c2cc3nccn3c(Nc3ccccc3)n2)cc1NC(C)=O [Example 3]
< 500 | COc1ccc(-c2cc3nccn3c(Nc3ccc(C(=O)NCC(O)CO)cc3)n2)cc1OC (stereo not drawn) [Example 5]
< 500 | COc1ccc(-c2cc3nccn3c(Nc3ccc(C(=O)NCCCO)cc3)n2)cc1OC [Example 7]

same assay, conditions: in vitro; compounds as yielded by solid phase synthesis, purity about 40 to 90%

Activity grade (IC50 class) | Compound
C-D | CCSc1nc(-c2ccc(S(=O)(=O)N3CCOCC3)c(OC)c2)cc2nccn12 [Example 2-6]
C-D | CCSc1nc(-c2ccc(S(N)(=O)=O)c(OC)c2)cc2nccn12 [Example 2-7]
C-D | CCSc1nc(-c2ccc(S(=O)(=O)NCCN(C)C)c(OC)c2)cc2nccn12 [Example 2-8]
C-D | CCSc1nc(-c2ccc(S(=O)(=O)N3CCN(C)CC3)c(OC)c2)cc2nccn12 [Example 2-9]
C-D | CCSc1nc(-c2ccc(S(=O)(=O)N3CCC(C(=O)O)CC3)c(OC)c2)cc2nccn12 [Example 2-10]
C-D | CCOC(=O)CCNS(=O)(=O)c1ccc(-c2cc3nccn3c(SCC)n2)cc1OC [Example 2-11]
C-D | CCSc1nc(-c2ccc(F)c(F)c2)cc2nccn12 [Example 8-7]

same assay, conditions: in vitro; compounds as yielded by solid phase synthesis, purity about 40 to 90%; read-out: Activity grade (IC50 class)

Compound | IC50 [nM]
CCSc1nc(-c2ccc(OC)c(OC)c2)cc2nc(C(=O)OC)cn12 [Example 1-1] | 500 to 2000
CCSc1nc(-c2ccc(OC)nc2)cc2nccn12 [Example 1-2] | 2000 to 10000
CCSc1nc(-c2ccc3c(c2)OCO3)cc2nccn12 [Example 1-3] | 500 to 2000
CCSc1nc(-c2ccc(OC)cc2)cc2nccn12 [Example 1-5] | 500 to 2000
CCSc1nc(-c2ccc3cc(OC)ccc3c2)cc2nccn12 [Example 1-6] | 2000 to 10000
CCSc1nc(-c2ccc(OC)c(OC)c2)cc2nc(C)cn12 [Example 1-8] | < 500
CCSc1nc(-c2ccc(SC)cc2)cc2nccn12 [Example 1-12] | 500 to 2000
CCSc1nc(-c2ccc3c(c2)OCCO3)cc2nccn12 [Example 1-13] | 500 to 2000
CCSc1nc(-c2ccc(C)c(S(=O)(=O)N3CCN(CCO)CC3)c2)cc2nccn12 [Example 2-1] | 500 to 2000
CCSc1nc(-c2ccc(OC)c(S(=O)(=O)NCCO)c2)cc2nccn12 [Example 2-2] | < 500
CCSc1nc(-c2ccc(OC)c(S(=O)(=O)N3CCN(CCO)CC3)c2)cc2nccn12 [Example 2-3] | < 500
CCSc1nc(-c2ccc(SC)c(S(=O)(=O)N3CCN(CCO)CC3)c2)cc2nccn12 [Example 2-4] | 500 to 2000
CCSc1nc(-c2ccc(C)c(S(=O)(=O)NCCO)c2)cc2nccn12 [Example 2-5] | < 500
CCOc1ccc(-c2cc3nccn3c(SCC)n2)cc1OC [Example 3-1] | < 500
C=CCOc1ccc(-c2cc3nccn3c(SCC)n2)cc1OC [Example 3-2] | < 500
CCSc1nc(-c2ccc(OCc3ccc(OC)cc3)c(OC)c2)cc2nccn12 [Example 3-3] | 500 to 2000
CCSc1nc(-c2ccc(OCC3CCCCO3)c(OC)c2)cc2nccn12 (stereo not drawn) [Example 3-4] | < 500

Compound | IC50 [nM]
CCSc1nc(-c2ccc(OC(C)C)c(OC)c2)cc2nccn12 [Example 3-5] | < 500
CCSc1nc(-c2ccc(OC3CCCCC3)c(OC)c2)cc2nccn12 [Example 3-6] | 500 to 2000
CCSc1nc(-c2ccc(OC(C)=O)c(OC)c2)cc2nccn12 [Example 3-7] | < 500
CCSc1nc(-c2ccc(OC(=O)C(C)C)c(OC)c2)cc2nccn12 [Example 3-8] | 500 to 2000
CCNC(=O)Oc1ccc(-c2cc3nccn3c(SCC)n2)cc1OC [Example 3-9] | 500 to 2000
CCSc1nc(-c2ccc(OS(C)(=O)=O)c(OC)c2)cc2nccn12 [Example 3-10] | 500 to 2000
CCSc1nc(-c2ccc(OC(=O)OC)c(OC)c2)cc2nccn12 [Example 3-11] | < 500
CCSc1nc(-c2ccc(OC)c(OCc3ccccc3)c2)cc2nccn12 [Example 4-1] | 500 to 2000
CCSc1nc(-c2ccc(OC)c(O)c2)cc2nccn12 [Example 4-2] | < 500
CCSc1nc(-c2ccc(OC)c(OC(C)C)c2)cc2nccn12 [Example 4-3] | < 500
CCSc1nc(-c2ccc(OC)c(OC3CCCCC3)c2)cc2nccn12 [Example 4-4] | 500 to 2000
CCSc1nc(-c2ccc(OC)c(OCC3CCCCO3)c2)cc2nccn12 (stereo not drawn) [Example 4-5] | 500 to 2000
CCOCCOc1cc(-c2cc3nccn3c(SCC)n2)ccc1OC [Example 4-6] | < 500
CCSc1nc(-c2ccc(OC)c(OC(C)=O)c2)cc2nccn12 [Example 4-7] | < 500
CCNC(=O)Oc1cc(-c2cc3nccn3c(SCC)n2)ccc1OC [Example 4-8] | < 500
CCSc1nc(-c2ccc(OC)c(OS(C)(=O)=O)c2)cc2nccn12 [Example 4-9] | 500 to 2000
CCSc1nc(-c2cccc(N)c2)cc2nccn12 [Example 8, 3-(5-Ethylsulfanyl-imidazo[1,2-c]pyrimidin-7-yl)-phenylamine] | < 500

Now from value to compound:

IC50 [nM] | Compound
< 500 | CCSc1nc(-c2ccc(OCCCN3CCOCC3)c(OC)c2)cc2nccn12 [Example 5-1]
< 500 | CCSc1nc(-c2ccc(OCCCN(C)CC)c(OC)c2)cc2nccn12 [Example 5-2]
< 500 | CCSc1nc(-c2ccc(OCCCN(C)CCO)c(OC)c2)cc2nccn12 [Example 5-3]
500 to 2000 | CCSc1nc(-c2ccc(OC)c(OCCCN3CCN(C)CC3)c2)cc2nccn12 [Example 5-4]
500 to 2000 | CCSc1nc(-c2ccc(OC)c(OCCCN3CC[C@H](N(C)C)C3)c2)cc2nccn12 [Example 5-5]
500 to 2000 | CCSc1nc(-c2ccc(OC)c(OCCCN3CCCCC3)c2)cc2nccn12 [Example 5-6]
< 500 | CCSc1nc(-c2ccc(OCCCN3CCCCC3)c(OC)c2)cc2nccn12 [Example 5-7]
< 500 | CCSc1nc(-c2ccc(OCCCN3CCN(C)CC3)c(OC)c2)cc2nccn12 [Example 5-8]
< 500 | CCSc1nc(-c2ccc(OCCCN3CCSCC3)c(OC)c2)cc2nccn12 [Example 5-9]
500 to 2000 | CCSc1nc(-c2ccc(OC)c(OCCCN3CCSCC3)c2)cc2nccn12 [Example 5-10]
500 to 2000 | CCSc1nc(-c2ccc(OC)c(OCCCN3CCOCC3)c2)cc2nccn12 [Example 5-11]
500 to 2000 | CCSc1nc(-c2ccc(OC)c(OCCN3CCOCC3)c2)cc2nccn12 [Example 5-12]
< 500 | CCSc1nc(-c2ccc(OCCCN3CCC(C(N)=O)CC3)c(OC)c2)cc2nccn12 [Example 5-13]
< 500 | CCSc1nc(-c2ccc(OCCN3CC(C)OC(C)C3)c(OC)c2)cc2nccn12 (stereo not drawn) [Example 5-14]
< 500 | CCOc1ccc(-c2cc3nccn3c(SCC)n2)cc1OCC [Example 6-1]
500 to 2000 | CCOCCOc1ccc(-c2cc3nccn3c(SCC)n2)cc1OCCOCC [Example 6-2]
500 to 2000 | CCSc1nc(-c2cccc(OC)c2)cc2nccn12 [Example 8-1]
2000 to 10000 | CCSc1nc(-c2cccnc2)cc2nccn12 [Example 8-2]
500 to 2000 | CCSc1nc(-c2cccs2)cc2nccn12 [Example 8-3]
500 to 2000 | CCSc1nc(-c2ccsc2)cc2nccn12 [Example 8-5]
500 to 2000 | CCSc1cc(-c2cccc([N+](=O)[O-])c2)cc2nccn12 [Example 8-6]
2000 to 10000 | CCSc1nc(-c2ccc([N+](=O)[O-])c(OC)c2)cc2nccn12 [Example 8-8]
